We go through 3 compounds from US20220226260A1, “APPLICATION OF HONOKIOL AND MAGNOLOL IN PREPARATION OF MCR-1 ENZYME INHIBITOR” (priority 2019, published 2022).

The subject of test [1] is MCR-1 positive Escherichia coli (E. coli DZ2-12R). In words: Chessboard MIC test, MCR-1 positive E. coli. It counts as cell-based. The settings on record: for MIC: Escherichia coli; for antibacterial effect alone: summary for the strains of Tables 1 and 2; for reduction of the MIC value of polymyxin: combination with polymyxin, MCR-1 positive Escherichia coli. How it is done: (§1) The antibacterial activities of honokiol, magnolol, polymyxin and their combination against MCR-1 producing Escherichia coli (also referred to as MCR-1 positive Escherichia coli) and Klebsiella pneumoniae are tested by chessboard method in 96-well sterile microplates, the MIC values are determined, and the fractional inhibitory concentration (FIC) indexes are calculated. Specifically, FIC=MIC (polymyxin combined)/MIC (polymyxin alone)+MIC (honokiol/magnolol combined)/MIC (honokiol/magnolol alone).

Test [2] deals with MCR-1 positive Klebsiella pneumoniae. In words: Colony colonization experiment of mouse thigh muscle infection. The conditions noted are these: BALB/C mice, subcutaneous, every 8 hours for three times, 36 hours. It counts as in vivo. As to the method: After BALB/C mice (female, about 20 […] (g)) are restrained, MCR-1 positive Klebsiella pneumoniae suspension (2×10^7 CFUs) is injected through the inner thigh to establish a mouse thigh muscle infection model.
After intramuscular injection of MCR-1 positive Klebsiella pneumoniae into the inner thigh of mice, 5 […] (mg/kg) (50 μL) of polymyxin B dissolved in sterile ultra-pure water (dd H2O), 50 mg/kg (50 μL) honokiol or magnolol dissolved in dimethyl sulfoxide (DMSO) solution, and 50 mg/kg of honokiol or magnolol combined with polymyxin B (5 mg/kg) are injected subcutaneously, while the positive control group is subcutaneously injected with 50 μL DMSO blank solvent. All groups of mice are administered subcutaneously every 8 hours for three times. After 36 hours of administration, the mice are sacrificed, and the thigh muscles are weighed, homogenized, diluted and counted.

Test [3] deals with MCR-1 engineering bacteria E. coli BL21(DE3) (pET28a-mcr-1). In words: Chessboard MIC test, MCR-1 engineering bacteria. It counts as cell-based, Escherichia coli. The conditions noted are these: for MIC: Escherichia coli, read-out: MIC alone; for synergistic effect with polymyxin: combination with polymyxin, strain expressing MCR-1; for FIC: combined with polymyxin B. How it is done: as §1

The test system of test [4] is MCR-1 positive Klebsiella pneumoniae (K. pneumoniae ZJ02). The experiment in a line: Chessboard MIC test, MCR-1 positive K. pneumoniae. The conditions noted are these: for MIC: Klebsiella pneumoniae; for reduction of the MIC value of polymyxin: combination with polymyxin, MCR-1 positive Klebsiella pneumoniae. In kind it is cell-based. As to the method:
as §1

Test [5] relates to E. coli BL21(DE3) (pET28a). In words: Chessboard MIC test, engineering strain not expressing MCR-1. In kind it is cell-based, Escherichia coli. The conditions noted are these: for MIC: Escherichia coli, read-out: MIC alone; for synergistic effect with polymyxin: combination with polymyxin, strain that does not express MCR-1; for FIC: combined with polymyxin B.
Test [6] relates to MCR-1 positive Escherichia coli isolate. In words: Time-kill curve test. The conditions noted are these: 1×10^5 CFUs/mL. In kind it is cell-based. How it is done: An overnight culture of MCR-1 positive Escherichia coli isolate is taken and adjusted to 1×10^7 colony forming units per milliliter (CFUs/mL) for use. Sterile test tubes are taken and divided into 4 groups (including blank control group, 2 μg/mL polymyxin group B group, 16 μg/mL honokiol or 32 μg/mL magnolol group, and 16 μg/mL honokiol or 32 μg/mL magnolol combined with 2 μg/mL polymyxin B group), each group is marked for 1, 3, 5 and 7 hours. 1 mL of autoclaved Lysogeny broth (LB) medium is added into each of the test tubes, and then 10 microliters (μL) of adjusted bacterial solution are added into each of the test tubes so that the concentration of bacterial solution in each of the test tubes is 1×10^5 CFUs/mL. Among them, 2 μg/mL polymyxin group B group, 16 μg/mL honokiol or 32 μg/mL magnolol group, and 16 μg/mL honokiol or 32 μg/mL magnolol combined with 2 μg/mL polymyxin B group are added with the corresponding amount of antibiotics and inhibitors respectively. Immediately after mixing, the bacterial solution of the antibiotic-free control group is coated and counted as the CFU at 0 H. After that, the bacterial solution in the corresponding test tube is taken every 1, 3, 5 and 7 hours, and the plate is coated for counting, and the time-kill curves are drawn, as shown in FIG. 1 and FIG. 2.

[7] abbreviates: combined with polymyxin B, E. coli DZ2-12R.
Where [8] appears, read: 50 mg/kg combined with polymyxin B (5 mg/kg).
Setting [9] is: alone (honokiol or magnolol 50 mg/kg, polymyxin B 5 mg/kg).
The mark [10] stands for this setting: E. coli BL21(DE3) (pET28a-mcr-1).
Where [11] appears, read: combined with polymyxin B, K. pneumoniae ZJ02.

Where two headings read alike, the source gives them in different places. Some results are limits rather than exact numbers.

`C=CCc1ccc(O)c(-c2ccc(O)c(CC=C)c2)c1` [Honokiol, honokiol]: the MIC in test [1] (read-out: MIC alone) is greater than 512 mg/L; in test [1] (combined with polymyxin B, E. coli DZ2-12R, read-out: MIC co-application (honokiol/magnolol)), 32 mg/L; in test [3], greater than 512 mg/L; in test [4] (read-out: MIC alone), greater than 512 mg/L; in test [4] (combined with polymyxin B, K. pneumoniae ZJ02, read-out: MIC co-application (honokiol/magnolol)) it was 32 mg/L; in test [5] it was greater than 512 mg/L. For the same compound, the antibacterial effect alone result in test [1] (alone) is recorded as “no antibacterial effect”. Moreover, the “reduction of the MIC value of polymyxin” value was determined as 8 fold in test [1] and 16 fold in test [4]. For the same compound, the FIC in test [1] (setting [7]) was determined as 0.1875; in test [3] (setting [10]), 0.125; in test [4] (setting [11]), 0.125; in test [5] (E. coli BL21(DE3) (pET28a)), 0.5625. The “number of bacterial colonization in mouse thigh muscle” value (from here on “number of bacterial colonization”) is “significantly reduced” in test [2] (setting [8]) and “no significant effect” in test [2] (setting [9]). Moreover, the “synergistic effect with polymyxin” value in test [3] was “obvious synergistic effect”; in test [5], “does not have any synergistic effect”. Also, the “time to completely kill MCR-1 positive Escherichia coli” value in test [6] (16 μg/mL honokiol combined with 2 μg/mL polymyxin B) was no more than 1 h.
`C=CCc1ccc(O)c(-c2cc(CC=C)ccc2O)c1` [Magnolol, magnolol]: the MIC in test [1] (read-out: MIC alone), in test [3], in test [4] (read-out: MIC alone) and in test [5] was greater than 512 mg/L throughout. For the same compound, the antibacterial effect alone entry in test [1] (alone) is listed as “no antibacterial effect”. For the same compound, the “reduction of the MIC value of polymyxin” value in test [1] and in test [4] was 4 fold in each case. Besides, the FIC turned out to be 0.3125 in test [1] (setting [7]), 0.1875 in test [3] (setting [10]), 0.3125 in test [4] (setting [11]) and 1.0625 in test [5] (E. coli BL21(DE3) (pET28a)). The entries for the “number of bacterial colonization” value in test [2] (setting [8]) and in test [2] (setting [9]) were “significantly reduced” and “no significant effect”, respectively. The “synergistic effect with polymyxin” value in test [3] was “obvious synergistic effect”; in test [5], “does not have any synergistic effect”. The “time to completely kill MCR-1 positive Escherichia coli” value in test [6] (32 μg/mL magnolol combined with 2 μg/mL polymyxin B) was no more than 3 h.
For the compound Polymyxin B [reference compound], the MIC alone in test [1] (alone, E. coli DZ2-12R) came to 8 mg/L; in test [3] (alone, E. coli BL21(DE3) (pET28a-mcr-1)) it was 8 mg/L; in test [4] (alone, K. pneumoniae ZJ02), 32 mg/L; in test [5] (alone, E. coli BL21(DE3) (pET28a)) it was 1 mg/L. Moreover, the “MIC Polymyxin B co-application” value was 1 mg/L in test [1] (polymyxin B combined with honokiol, E. coli DZ2-12R); 2 mg/L in test [1] (polymyxin B combined with magnolol, E. coli DZ2-12R); 0.5 mg/L in test [3] (polymyxin B combined with honokiol, E. coli BL21(DE3) (pET28a-mcr-1)); 1 mg/L in test [3] (polymyxin B combined with magnolol, E. coli BL21(DE3) (pET28a-mcr-1)); 2 mg/L in test [4] (polymyxin B combined with honokiol, K. pneumoniae ZJ02); 8 mg/L in test [4] (polymyxin B combined with magnolol, K. pneumoniae ZJ02). The “MIC Polymyxin B co-application” value in test [5] (polymyxin B combined with honokiol, E. coli BL21(DE3) (pET28a)) came to 0.5 mg/L; in test [5] (polymyxin B combined with magnolol, E. coli BL21(DE3) (pET28a)), 1 mg/L. The “number of bacterial colonization” value in test [2] (setting [9]) is given as “no significant effect”.
